T/C data for 24 compounds are collected here from PubChem BioAssay AID330 (DTP/NCI, 2004).

The test system of the assay is P388 leukemia ip, CD2F1 mice, survival T/C. Nature of the assay: NCI In Vivo Anticancer Drug Screen. Data for tumor model P388 Leukemia (intraperitoneal) in CD2F1 (CDF1) mice. To be noted: endpoint: median survival time, higher = longer survival. The method, boiled down:
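Mice carrying the transplanted tumor received test compound or vehicle. Survival was recorded in each group, and the value is the treated-group measurement divided by that of the vehicle-treated control group.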

Setting [1] is: dose: 25.0 mg/kg/injection, schedule: Q01DX009 (ip), vehicle: Klucel (hydroxypropylcellulose) (HPC).
Setting [2] is: dose: 50.0 mg/kg/injection, schedule: Q01DX009 (ip), vehicle: Klucel (hydroxypropylcellulose) (HPC).
Where [3] appears, read: dose: 50.0 mg/kg/injection, schedule: Q01DX005 (ip), vehicle: saline with Tween-80.
Where [4] appears, read: dose: 100.0 mg/kg/injection, schedule: Q01DX005 (ip), vehicle: saline with Tween-80.
Setting [5] is: dose: 200.0 mg/kg/injection, schedule: Q01DX005 (ip), vehicle: saline with Tween-80.
[6] abbreviates: dose: 50.0 mg/kg/injection, schedule: Q01DX005 (ip), vehicle: Klucel (hydroxypropylcellulose) (HPC).
[7] abbreviates: dose: 100.0 mg/kg/injection, schedule: Q01DX005 (ip), vehicle: Klucel (hydroxypropylcellulose) (HPC).
The mark [8] stands for this setting: dose: 200.0 mg/kg/injection, schedule: Q01DX005 (ip), vehicle: Klucel (hydroxypropylcellulose) (HPC).
Where [9] appears, read: dose: 50.0 mg/kg/injection, schedule: Q01DX009 (ip), vehicle: saline.
[10] abbreviates: dose: 100.0 mg/kg/injection, schedule: Q01DX009 (ip), vehicle: saline.
Where [11] appears, read: dose: 200.0 mg/kg/injection, schedule: Q01DX009 (ip), vehicle: saline.
Where [12] appears, read: dose: 12.5 mg/kg/injection, schedule: Q01DX009 (ip), vehicle: other.
[13] abbreviates: dose: 25.0 mg/kg/injection, schedule: Q01DX009 (ip), vehicle: other.
Setting [14] is: dose: 50.0 mg/kg/injection, schedule: Q01DX009 (ip), vehicle: other.

Several values for one entry are separate records, joined by “and”; a condition that tells them apart may be missing. Identical values can stand only once. Inconclusive results and toxic doses are left out. Square brackets hold non-standard residues; d marks the D form. Peptide text beside a SMILES is read from it. Hpg = N[CH](C(=O)O)c1ccc(O)cc1

For the compound `CCC1=C[C@H]2CN(CCc3c([nH]c4ccccc34)[C@@](C(=O)OC)(c3cc4c(cc3OC)N(C)[C@H]3C(C(=O)NC)=C[C@]5(CC)C=CCN6CC[C@]43[C@@H]65)C2)C1`, the T/C is 101 % of control (dose: 1.0 mg/kg/injection, schedule: Q01DX001 (ip), vehicle: other); 101 % of control (dose: 2.0 mg/kg/injection, schedule: Q01DX001 (ip), vehicle: other); 107 % of control (dose: 4.0 mg/kg/injection, schedule: Q01DX001 (ip), vehicle: other); 108 % of control (dose: 8.0 mg/kg/injection, schedule: Q01DX001 (ip), vehicle: other); 114 % of control (dose: 16.0 mg/kg/injection, schedule: Q01DX001 (ip), vehicle: other); 112 % of control and 123 % of control (dose: 32.0 mg/kg/injection, schedule: Q01DX001 (ip), vehicle: other). In addition, the T/C (dose: 64.0 mg/kg/injection, schedule: Q01DX001 (ip), vehicle: other) was 119 % of control.

For `CCN(CC)CCNC(=S)NNc1nc(C)ccc1[N+](=O)[O-]`, the T/C is, setting by setting: (dose: 12.5 mg/kg/injection, schedule: Q01DX009 (ip), vehicle: Klucel (hydroxypropylcellulose) (HPC)) 99 % of control; under setting [1], 95 % of control; under setting [2], 87 % of control and 97 % of control.

As for `Cc1nnc(CN2CCOCC2)n1-c1ccc(Cl)cc1C(=O)c1ccccc1`, the T/C under setting [1] is 86 % of control; the T/C under setting [2] was 96 % of control; the T/C (dose: 100.0 mg/kg/injection, schedule: Q01DX009 (ip), vehicle: Klucel (hydroxypropylcellulose) (HPC)) was 105 % of control.

For the compound `Cc1ccccc1Nc1nc(-c2ccccc2)nc(N)c1N=O`, the T/C was 100 % of control (dose: 100.0 mg/kg/injection, schedule: Q04DX003 (ip), vehicle: saline); 98 % of control (dose: 200.0 mg/kg/injection, schedule: Q04DX003 (ip), vehicle: saline); 98 % of control (dose: 400.0 mg/kg/injection, schedule: Q04DX003 (ip), vehicle: saline).

For `CCC1(C=O)NC(=O)NC1=O` (configuration not stated), the T/C runs as follows: under setting [3], 91 % of control; under setting [4], 95 % of control; under setting [5], 87 % of control.

With `CCCC(=O)NNCN1C(=O)c2ccccc2C1=O`, the T/C is 89 % of control under setting [6], 86 % of control under setting [7] and 93 % of control under setting [8].

For the compound `CC(C)CC(N)C(=O)NC(C(N)=O)c1ccc(O)cc1` (configuration not stated) (H-Leu-[Hpg]-NH2; configuration not given here), the T/C by setting is: under setting [9], 101 % of control; under setting [10], 92 % of control; under setting [11], 88 % of control.

Take `O=C1C(CC=C(Cl)Cl)=C(OC2OC(CO)C(O)C(O)C2O)C(=O)c2ccccc21` (configuration not stated): the T/C was 103 % of control (dose: 3.12 mg/kg/injection, schedule: Q01DX009 (ip), vehicle: saline with Tween-80); 109 % of control (dose: 6.25 mg/kg/injection, schedule: Q01DX009 (ip), vehicle: saline with Tween-80); 111 % of control (dose: 12.5 mg/kg/injection, schedule: Q01DX009 (ip), vehicle: saline with Tween-80).

With `C1CNC(CCNCCSCCNCCC2=NCCN2)=N1`, the T/C is, setting by setting: (dose: 12.5 mg/kg/injection, schedule: Q01DX009 (ip), vehicle: saline) 100 % of control; (dose: 25.0 mg/kg/injection, schedule: Q01DX009 (ip), vehicle: saline) 96 % of control; under setting [9], 100 % of control.

Consider `N/N=C1\C(Cl)=C(Cl)c2ccccc21`, for which the T/C reads like this: under setting [6], 90 % of control; under setting [7], 93 % of control; under setting [8], 90 % of control.

With `CS/C(=C\C=Nc1ccccc1)c1ccccc1`, the T/C is 103 % of control (dose: 100.0 mg/kg/injection, schedule: Q04DX002 (ip), vehicle: saline with Tween-80); 100 % of control (dose: 200.0 mg/kg/injection, schedule: Q04DX002 (ip), vehicle: saline with Tween-80); 109 % of control (dose: 400.0 mg/kg/injection, schedule: Q04DX002 (ip), vehicle: saline with Tween-80).

Turning to `CCC1(CC)c2c(ccc(OC)c2OC)C=C2c3cc4c(cc3CCN21)OCO4`, the T/C is, setting by setting: (dose: 0.63 mg/kg/injection, schedule: Q01DX009 (ip), vehicle: distilled water + Tween-80) 108 % of control; (dose: 0.63 mg/kg/injection, schedule: Q01DX009 (ip), vehicle: water) 94 % of control; (dose: 1.25 mg/kg/injection, schedule: Q01DX009 (ip), vehicle: distilled water + Tween-80) 108 % of control; (dose: 1.25 mg/kg/injection, schedule: Q01DX009 (ip), vehicle: water) 103 % of control; (dose: 2.5 mg/kg/injection, schedule: Q01DX009 (ip), vehicle: distilled water + Tween-80) 123 % of control; (dose: 2.5 mg/kg/injection, schedule: Q01DX009 (ip), vehicle: water) 112 % of control.

Regarding `Nc1ccccc1C(=O)NCCCCCCN1CCN(c2cccc(Cl)c2)CC1`, the T/C by setting is: (dose: 50.0 mg/kg/injection, schedule: Q01DX009 (ip), vehicle: saline with Tween-80) 92 % of control; (dose: 100.0 mg/kg/injection, schedule: Q01DX009 (ip), vehicle: saline with Tween-80) 90 % of control; (dose: 200.0 mg/kg/injection, schedule: Q01DX009 (ip), vehicle: saline with Tween-80) 96 % of control.

Consider `CC(/C=C/c1ccco1)=N\O`, for which the T/C under setting [12] is 104 % of control, the T/C under setting [13] was 100 % of control and the T/C under setting [14] was 91 % of control.

As for `Cc1cc2cc3c(=O)[nH]c(=O)cc-3n(CC(O)C(O)C(O)CO)c2cc1C` (configuration not stated), the T/C is, setting by setting: under setting [12], 102 % of control; under setting [13], 96 % of control; under setting [14], 96 % of control; (dose: 100.0 mg/kg/injection, schedule: Q01DX009 (ip), vehicle: other) 95 % of control.

Consider `Nc1ncccc1O`, for which the T/C was 104 % of control (dose: 2.5 mg/kg/injection, schedule: Q01DX009 (ip), vehicle: saline); 97 % of control (dose: 5.0 mg/kg/injection, schedule: Q01DX009 (ip), vehicle: saline); 96 % of control (dose: 10.0 mg/kg/injection, schedule: Q01DX009 (ip), vehicle: saline); 110 % of control (dose: 20.0 mg/kg/injection, schedule: Q01DX009 (ip), vehicle: saline); 107 % of control (dose: 40.0 mg/kg/injection, schedule: Q01DX009 (ip), vehicle: saline).

For `CCC(=O)C[N+]12CCN(CC1)CC2`, the T/C is, setting by setting: (dose: 25.0 mg/kg/injection, schedule: Q04DX002 (ip), vehicle: Klucel (hydroxypropylcellulose) (HPC)) 105 % of control; (dose: 50.0 mg/kg/injection, schedule: Q04DX002 (ip), vehicle: Klucel (hydroxypropylcellulose) (HPC)) 104 % of control.

Take `CCCCCCCCC(O)C#CC(N)=O` (configuration not stated): the T/C is 99 % of control (dose: 100.0 mg/kg/injection, schedule: Q01DX001 (ip), vehicle: saline with Tween-80) and 90 % of control (dose: 200.0 mg/kg/injection, schedule: Q01DX001 (ip), vehicle: saline with Tween-80).

For `COc1cc(-n2c(C)nc3ncn(-c4ccccc4)c3c2=O)cc(OC)c1OC`, the T/C runs as follows: under setting [6], 98 % of control; under setting [7], 102 % of control; under setting [8], 105 % of control.

For the compound `CNNCc1ccc(C(=O)NC(N)=O)cc1`, the T/C (dose: 300.0 mg/kg/injection, schedule: Q01DX009 (ip), vehicle: saline) is 170 % of control.

As to `CCOC1CN(C(=O)ON)N1C(=O)ON` (configuration not stated), the T/C is, setting by setting: under setting [9], 109 % of control; under setting [10], 107 % of control; under setting [11], 89 % of control.

For `CCOC(=O)C(C(=O)OCC)=S1c2ccccc2Sc2ccccc21`, the T/C is 90 % of control (dose: 60.0 mg/kg/injection, schedule: Q01DX005 (ip), vehicle: Klucel (hydroxypropylcellulose) (HPC)) and 89 % of control (dose: 120.0 mg/kg/injection, schedule: Q01DX005 (ip), vehicle: Klucel (hydroxypropylcellulose) (HPC)).

As for `Cc1[nH]nc2c1NC(=O)OC(C)(C)C2`, the T/C by setting is: under setting [3], 106 % of control; under setting [4], 99 % of control; under setting [5], 101 % of control.

Turning to `CN(C)C1=CC(=S)NC(c2ccccc2)C1` (configuration not stated), the T/C is 103 % of control under setting [6], 100 % of control under setting [7] and 105 % of control under setting [8].
